In ChEMBL document CHEMBL4419178, “Yap1 inhibitors that target the interaction of yap1 with oct4” (2018):
Active and inactive are the calls of the source. The rule behind the calls is not given here.

What was measured:
NCI-H1703 [1] = test: Inhibition of adherence-independent cell growth in human NCI-H1703 cells at 10 uM incubated for 33 days; assay type: functional, cell-based
SK-MEL-5 = test: Cytotoxicity in human SK-MEL-5 cells assessed as reduction in cell viability at 0.5 to 20 uM incubated for 72 hrs by MTT assay; assay type: functional, cell-based
NCI-H1650 [2] = test: Effect on expression of Nanog mRNA expression in human NCI-H1650 cells at 5 to 10 uM incubated for 72 hrs by RT-PCR method; assay type: cell-based; details: nci-h1650, 72 h
[3] = biological target: Transcriptional coactivator YAP1 (Homo sapiens) (UniProt P46937); test: Inhibition of YAP1 in human NCI-H1650 cells assessed as suppression of fibronectin mRNA expression at 5 to 10 uM incubated for 72 hrs by RT-PCR method; assay type: cell-based
Transcriptional coactivator YAP1 (Homo sapiens), sequence (P46937 whole entry): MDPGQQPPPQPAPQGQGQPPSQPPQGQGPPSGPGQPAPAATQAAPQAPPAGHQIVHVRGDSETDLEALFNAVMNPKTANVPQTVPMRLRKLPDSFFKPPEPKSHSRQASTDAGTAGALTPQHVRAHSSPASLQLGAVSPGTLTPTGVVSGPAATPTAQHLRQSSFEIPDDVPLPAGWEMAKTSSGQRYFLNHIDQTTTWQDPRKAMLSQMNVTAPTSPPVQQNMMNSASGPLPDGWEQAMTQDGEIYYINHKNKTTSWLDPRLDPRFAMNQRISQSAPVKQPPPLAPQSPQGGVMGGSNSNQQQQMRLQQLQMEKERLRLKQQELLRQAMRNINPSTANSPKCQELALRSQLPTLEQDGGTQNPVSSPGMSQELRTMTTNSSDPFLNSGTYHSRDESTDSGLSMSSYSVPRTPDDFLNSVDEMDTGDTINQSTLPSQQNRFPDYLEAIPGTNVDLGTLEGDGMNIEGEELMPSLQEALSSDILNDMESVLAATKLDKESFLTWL

NCI-H1650 [4] = test: Cytotoxicity in human NCI-H1650 cells assessed as reduction in cell viability at 0.5 to 20 uM incubated for 72 hrs by MTT assay; assay type: functional, cell-based
NCI-H226 = test: Cytotoxicity in human NCI-H226 cells assessed as reduction in cell viability at 0.5 to 20 uM incubated for 96 hrs by MTT assay; assay type: functional, cell-based
NCI-H1703 [5] = test: Cytotoxicity in human NCI-H1703 cells assessed as reduction in cell viability at 0.5 to 20 uM incubated for 96 hrs by MTT assay; assay type: functional, cell-based
A549 = test: Cytotoxicity in human A549 cells assessed as reduction in cell viability at 0.5 to 20 uM incubated for 72 hrs by MTT assay; assay type: functional, cell-based
[6] = biological target: Transcriptional coactivator YAP1 (Homo sapiens) (UniProt P46937); test: Inhibition of YAP1 in human A549 cells assessed as disruption in YAP1/OCT4 interaction at 5 uM incubated for 72 hrs by immunoprecipitation-Westem blot assay; assay type: cell-based
NCI-H1650 [7] = test: Effect on expression of Oct4 mRNA expression in human NCI-H1650 cells at 5 to 10 uM incubated for 72 hrs by RT-PCR method; assay type: cell-based; details: nci-h1650, 72 h
NCI-H1650 [8] = test: Inhibition of adherence-independent cell growth in human NCI-H1650 cells at 10 uM incubated for 33 days; assay type: functional, cell-based
HUVEC = test: Inhibition of angiogenic tubule formation in HUVEC at 1 to 5 uM incubated for 18 to 24 hrs; assay type: functional, cell-based; details: Homo sapiens
NCI-H146 [9] = test: Effect on expression of Nanog mRNA expression in human NCI-H146 cells at 5 to 10 uM incubated for 72 hrs by RT-PCR method; assay type: cell-based; details: nci-h146, 72 h
PC-9 = test: Cytotoxicity in gefitinib resistant human PC9 cells assessed as reduction in cell viability at 1 to 20 uM by MTT assay; assay type: functional, cell-based
NCI-H1650 [10] = test: Inhibition of self-renewal capacity in stem-like side-population cells of human NCI-H1650 cells assessed as reduction in number of spheres at 1 to 20 uM incubated for 10 days by sphere formation assay; assay type: functional, cell-based
Homo sapiens [11] = species: Homo sapiens; test: Cytotoxicity in human 92-1 cells assessed as reduction in cell viability at 0.5 to 20 uM incubated for 72 hrs by MTT assay; assay type: functional, cell-based
[12] = biological target: Transcriptional coactivator YAP1 (Homo sapiens) (UniProt P46937); test: Inhibition of YAP1 in human NCI-H1703 cells assessed as suppression of vimentin mRNA expression at 5 to 10 uM incubated for 72 hrs by RT-PCR method; assay type: cell-based
NCI-H146 [13] = test: Inhibition of self-renewal capacity in methotrexate insensitive stem-like side-population cells of human NCI-H146 cells assessed as reduction in number of spheres at 2 uM incubated for 3 days after 7 days methotrexate exposure by sphere formation assay; assay type: functional
[14] = biological target: Transcriptional coactivator YAP1 (Homo sapiens) (UniProt P46937); test: Inhibition of YAP1 in human NCI-H1703 cells assessed as suppression of fibronectin mRNA expression at 5 to 10 uM incubated for 72 hrs by RT-PCR method; assay type: cell-based
[15] = biological target: Transcriptional coactivator YAP1 (Homo sapiens) (UniProt P46937); test: Inhibition of YAP1 in human NCI-H1650 cells assessed as reduction in Sox2 protein expression at 5 uM by luciferase reporter gene assay; assay type: cell-based
NCI-H146 [16] = test: Effect on expression of Oct4 mRNA expression in human NCI-H146 cells at 5 to 10 uM incubated for 72 hrs by RT-PCR method; assay type: cell-based; details: nci-h146, 72 h
NCI-H1650 [17] = test: Inhibition of adherence-independent cell growth in human NCI-H1650 cells at 5 uM incubated for 33 days; assay type: functional, cell-based
[18] = biological target: Transcriptional coactivator YAP1 (Homo sapiens) (UniProt P46937); test: Inhibition of YAP1 in human NCI-H1650 cells assessed as disruption in YAP1/OCT4 interaction at 5 uM incubated for 72 hrs by immunoprecipitation-Westem blot assay; assay type: cell-based
NCI-H1650 [19] = test: Inhibition of self-renewal capacity in stem-like side-population cells of human NCI-H1650 cells assessed as reduction in number of spheres at 5 uM incubated for 10 days by sphere formation assay relative to control; assay type: functional; details: NCI-H1650, 240 h
[20] = biological target: Transcriptional coactivator YAP1 (Homo sapiens) (UniProt P46937); test: Inhibition of YAP1 in human NCI-H1703 cells assessed as suppression of Sox2 mRNA expression at 5 to 10 uM incubated for 72 hrs by RT-PCR method; assay type: cell-based
NCI-H1703 [21] = test: Effect on expression of Nanog mRNA expression in human NCI-H1703 cells at 5 to 10 uM incubated for 72 hrs by RT-PCR method; assay type: cell-based; details: nci-h1703, 72 h
[22] = biological target: Transcriptional coactivator YAP1 (Homo sapiens) (UniProt P46937); test: Inhibition of YAP1 in human NCI-H1650 cells assessed as suppression of vimentin mRNA expression at 5 to 10 uM incubated for 72 hrs by RT-PCR method; assay type: cell-based
NCI-H1703 [23] = test: Inhibition of adherence-independent cell growth in human NCI-H1703 cells at 5 uM incubated for 33 days; assay type: functional, cell-based
[24] = biological target: Transcriptional coactivator YAP1 (Homo sapiens) (UniProt P46937); test: Inhibition of YAP1 in human NCI-H146 cells assessed as suppression of Sox2 mRNA expression at 5 to 10 uM incubated for 72 hrs by RT-PCR method; assay type: cell-based
NCI-H1650 [25] = test: Inhibition of YAP1/TEAD2 interaction in human NCI-H1650 cells assessed as suppression of CTGF mRNA expression at 5 to 10 uM incubated for 72 hrs by RT-PCR method; assay type: cell-based
NCI-H1703 [26] = test: Effect on expression of Oct4 mRNA expression in human NCI-H1703 cells at 5 to 10 uM incubated for 72 hrs by RT-PCR method; assay type: cell-based; details: nci-h1703, 72 h
NCI-H1703 [27] = test: Inhibition of YAP1/TEAD2 interaction in human NCI-H1703 cells assessed as suppression of CTGF mRNA expression at 5 to 10 uM incubated for 72 hrs by RT-PCR method; assay type: cell-based
NCI-H1975 = test: Cytotoxicity in gefitinib and erlotinib resistant human NCI-H1975 cells assessed as reduction in cell viability at 1 to 10 uM incubated for 72 hrs by MTT assay; assay type: functional, cell-based
Homo sapiens [28] = species: Homo sapiens; test: Cytotoxicity in human WM1366 cells assessed as reduction in cell viability at 0.5 to 20 uM incubated for 72 hrs by MTT assay; assay type: functional, cell-based
[29] = biological target: Transcriptional coactivator YAP1 (Homo sapiens) (UniProt P46937); test: Inhibition of YAP1 in human NCI-H1650 cells assessed as suppression of Sox2 mRNA expression at 5 to 10 uM incubated for 72 hrs by RT-PCR method; assay type: cell-based
HCC827 = test: Cytotoxicity in erlotinib-resistant human HCC827 cells assessed as reduction in cell viability at 1 to 20 uM by MTT assay; assay type: functional, cell-based

| SMILES | inhibition (NCI-H1703 [1]) | Activity (SK-MEL-5) | Activity (NCI-H1650 [2]) | inhibition [3] | Activity (NCI-H1650 [4]) | Activity (NCI-H226) | Activity (NCI-H1703 [5]) | Activity (A549) | inhibition [6] | Activity (NCI-H1650 [7]) | inhibition (NCI-H1650 [8]) | inhibition (HUVEC) | Activity (NCI-H146 [9]) | Activity (PC-9) | inhibition (NCI-H1650 [10]) | Activity (Homo sapiens [11]) | inhibition [12] | inhibition (NCI-H146 [13]) | inhibition [14] | inhibition [15] | further results |
| --- | --- | --- | --- | --- | --- | --- | --- | --- | --- | --- | --- | --- | --- | --- | --- | --- | --- | --- | --- | --- | --- |
| COC(=O)[C@H](Cc1ccc(OCc2ccccc2)cc1)NC(=O)CC1CCN(C(=O)CCc2ccc(C#N)cc2)CC1 | Active | Active | Non-Toxic | Active | Active | Active | Active | Active | Active | Non-Toxic | Active | Active | Non-Toxic | Active | Active | Active | Active | Active | Active | 77.6% | Activity (NCI-H146 [16]): Non-Toxic; inhibition (NCI-H1650 [17]): Active; inhibition [18]: Active; inhibition at 5 µM (NCI-H1650 [19]): 80.2%; inhibition [20]: Active; Activity (NCI-H1703 [21]): Non-Toxic; inhibition [22]: Active; inhibition (NCI-H1703 [23]): Active; inhibition [24]: Active; inhibition (NCI-H1650 [25]): inactive; Activity (NCI-H1703 [26]): Non-Toxic; inhibition (NCI-H1703 [27]): inactive; Activity (NCI-H1975): Active; Activity (Homo sapiens [28]): Active; inhibition [29]: Active; Activity (HCC827): Active |
| COC(=O)[C@H](Cc1ccc(OCc2ccccc2)cc1)NC(=O)CC1CCN(C(=O)CCc2ccc(Cl)c(Cl)c2)CC1 | Active | Active | Non-Toxic | Active | Active | Active | Active | Active | Active | Non-Toxic | Active | Active | Non-Toxic | Active | Active | Active | Active | Active | Active | 85.5% | Activity (NCI-H146 [16]): Non-Toxic; inhibition (NCI-H1650 [17]): Active; inhibition [18]: Active; inhibition at 5 µM (NCI-H1650 [19]): 99%; inhibition [20]: Active; Activity (NCI-H1703 [21]): Non-Toxic; inhibition [22]: Active; inhibition (NCI-H1703 [23]): Active; inhibition [24]: Active; inhibition (NCI-H1650 [25]): inactive; Activity (NCI-H1703 [26]): Non-Toxic; inhibition (NCI-H1703 [27]): inactive; Activity (NCI-H1975): Active; Activity (Homo sapiens [28]): Active; inhibition [29]: Active; Activity (HCC827): Active |
